Consider six compounds from publication PMC10030075 (Medicinal Chemistry Research, 2023).

Data set [1] in a line: in vitro. The settings on record: human, microsomes, pH 7.4.
Data set [2] in a line: in vitro. The settings on record: human, microsomes, pH 7.4. The source holds these as a separate data set.
Another data set deals with HBV. Briefly: Preliminary screening of anti-HBV activity. The settings on record: inhibition of HBsAg and HBeAg expression, HepG2.2.15 cells. In kind it is cell-based, hepatitis B virus.
The test system of a further data set is hepatic fibrosis. The following applies: 50 mg/kg or 100 mg/kg, by increasing phospho-FOXO1 expression; cited from earlier work.
The next data set has as its system duck hepatitis B virus. The settings on record: in vivo; cited from earlier work.
The next data set relates to Newcastle disease virus. The following applies: cited from earlier work.

A value given as a limit tells only on which side of the number the result lay.

As to `O=c1ccc2ccc(O)cc2o1` [7-hydroxycoumarin, reference compound], in the data set “in vitro [1]”, the half-life (in general, the time in which the quantity being followed falls by half) was 0.263 h.
Take `Cc1nccn1CCCCOc1cc2oc(=O)ccc2cc1O` [Compound 6b, 6-Hydroxyl-7-(4-(2-methylimidazole-1-yl)butoxy)-2H-benzopyran-2-one]: the half-life in the data set “in vitro [2]” and in the data set “in vitro [1]” was more than 5 h each time. Moreover, the “anti-HBV activity (in words)” value in the data set with HBV is given as “moderate anti-HBV activity”.
As to `Cc1nccn1CCCCCOc1cc2oc(=O)ccc2cc1O` [Compound 6c, 6-Hydroxyl-7-(5-(2-methylimidazole-1-yl)pentyloxy)-2H-benzopyran-2-one], the half-life in “in vitro [2]” and in “in vitro [1]” was more than 5 h in each case. The “anti-HBV activity (in words)” value in the data set on HBV is given as “moderate anti-HBV activity”.
With `Cc1nccn1CCCCCCOc1cc2oc(=O)ccc2cc1O` [Compound 6d, 6-Hydroxyl-7-(6-(2-methylimidazole-1-yl)hexyloxy)-2H-benzopyran-2-one], the half-life in the data set “in vitro [2]” and in the data set “in vitro [1]” was more than 5 h throughout.
Consider `O=c1ccc2cc(O)c(O)cc2o1` [Esculetin, 6,7-dihydroxy-2-H-1-benzopyran-2-one], for which the hepatic fibrosis entry with hepatic fibrosis is “improvement in hepatic fibrosis”. In the data set on duck hepatitis B virus, the “levels of HBsAg and HBeAg in duck serum” value is “can reduce the levels of HBsAg and hepatitis B e antigen (HBeAg) in duck serum”. Also, the “Newcastle disease virus replication” value in the data set with Newcastle disease virus is “inhibited Newcastle disease virus replication well”.
Turning to `C[C@]12CC[C@H]3[C@@H](CCC4=CC(=O)CC[C@@]43C)[C@@H]1CC[C@@H]2O` [testosterone, reference compound], in “in vitro [2]”, the half-life was 0.4 h.
